# Test results taken from ChEMBL document CHEMBL5252611, “2- and 3-Fluoro-3-deaza-1',6'-isoneplanocin: Synthesis and antiviral properties (including Ebola and Marburg)” (Bioorg Med Chem Lett, 2023).
# Calls of active or inactive are those of the source. The rule behind the calls is not given here.
# Columns and labels:
# [1] = system: Rift Valley fever virus; experiment: Antiviral activity against Rift Valley fever virus MP-12 infected in African green monkey Vero 76 cells by visual analysis; type: functional, organism-based; details: MP-12, Vero 76
# [2] = Cytotoxicity against African green monkey Vero 76 cells infected with Rift Valley fever virus MP-12 by visual analysis; type: toxicity, cell-based; details: chlorocebus sabaeus
# [3] = (§1) Selectivity index, ratio of CC50 for cytotoxicity against African green monkey Vero 76 cells infected with Rift Valley fever virus MP-12 by visual analysis to EC50 for antiviral activity against Rift Valley fever virus MP-12 infected in African green monkey Vero 76 cells by visual analysis; type: toxicity, cell-based; details: read-out: Ratio CC50/EC50
# [4] = system: Rift Valley fever virus; experiment: Antiviral activity against Rift Valley fever virus MP-12 infected in African green monkey Vero 76 cells by neutral red dye based analysis; type: functional, organism-based; details: MP-12, Vero 76
# [5] = Cytotoxicity against African green monkey Vero 76 cells infected with Rift Valley fever virus MP-12 by neutral red dye based analysis; type: toxicity, cell-based; details: chlorocebus sabaeus
# [6] = as §1, with “neutral red dye based” for “visual”; type: toxicity, cell-based; details: read-out: Ratio CC50/EC50
# [7] = system: Tacaribe virus; experiment: Antiviral activity against Tacaribe virus TRVL11573 infected in African green monkey Vero cells by visual analysis; type: functional, organism-based; details: Mammarenavirus tacaribeense
# [8] = Cytotoxicity against African green monkey Vero cells infected with Tacaribe virus TRVL11573 by visual analysis; type: toxicity, cell-based; details: chlorocebus sabaeus
# [9] = (§2) Selectivity index, ratio of CC50 for cytotoxicity against African green monkey Vero cells infected with Tacaribe virus TRVL11573 by visual analysis to EC50 for antiviral activity against Tacaribe virus TRVL11573 infected in African green monkey Vero cells by visual analysis; type: toxicity, cell-based; details: read-out: Ratio CC50/EC50
# [10] = system: Tacaribe virus; experiment: Antiviral activity against Tacaribe virus TRVL11573 infected in African green monkey Vero cells by neutral red dye based analysis; type: functional, organism-based; details: Mammarenavirus tacaribeense
# [11] = Cytotoxicity against African green monkey Vero cells infected with Tacaribe virus TRVL11573 by neutral red dye based analysis; type: toxicity, cell-based; details: chlorocebus sabaeus
# [12] = as §2, with “neutral red dye based” for “visual”; type: toxicity, cell-based; details: read-out: Ratio CC50/EC50
# [13] = system: Pichinde virus; experiment: Antiviral activity against Pichinde virus AN 4763 infected in African green monkey Vero cells by visual analysis; type: functional, organism-based; details: AN 4763, Vero
# [14] = Cytotoxicity against African green monkey Vero cells infected in Pichinde virus AN 4763 by visual analysis; type: toxicity, cell-based; details: chlorocebus sabaeus, Vero cells infected with Pichinde virus AN 4763
# [15] = Selectivity index, ratio of CC50 for cytotoxicity against African green monkey Vero cells infected with Pichinde virus AN 4763 by visual analysis to EC50 for antiviral activity against Pichinde virus AN 4763 infected in African green monkey Vero cells by visual analysis; type: toxicity, cell-based; details: read-out: Ratio CC50/EC50
# [16] = system: Pichinde virus; experiment: Antiviral activity against Pichinde virus AN 4763 infected in African green monkey Vero cells by neutral red dye based analysis; type: functional, organism-based; details: AN 4763, Vero
# [17] = Cytotoxicity against African green monkey Vero cells infected in Pichinde virus AN 4763 by neutral red dye based analysis; type: toxicity, cell-based; details: chlorocebus sabaeus, Vero cells infected with Pichinde virus AN 4763
# [18] = Selectivity index, ratio of CC50 for cytotoxicity against African green monkey Vero cells infected with Pichinde virus AN 4763 by neutral red dye based analysis to EC50 for antiviral activity against Pichinde virus AN 4763 infected in African green monkey Vero cells by neutral red dye based analysis; type: toxicity, cell-based; details: read-out: Ratio CC50/EC50
# [19] = system: Influenza A virus; experiment: Antiviral activity against influenza A virus California/7/2009(H1N1) infected in MDCK cells; type: functional, organism-based
# [20] = Cytotoxicity against MDCK cells infected with influenza A virus California/7/2009(H1N1); type: toxicity, cell-based, Canis lupus familiaris; details: dog
# [21] = Selectivity index, ratio of CC50 for cytotoxicity against MDCK cells infected with influenza A virus California/7/2009(H1N1) to EC50 for antiviral activity against influenza A virus California/7/2009(H1N1) infected in MDCK cells; type: toxicity, cell-based; details: dog; read-out: Ratio CC50/EC50
# [22] = system: Measles morbillivirus; experiment: Antiviral activity against Measles virus CC infected in African green monkey Vero 76 cells by visual analysis; type: functional, organism-based
# [23] = Cytotoxicity against African green monkey Vero 76 cells infected with Measles virus CC by visual analysis; type: toxicity, cell-based; details: chlorocebus sabaeus
# [24] = Selectivity index, ratio of CC50 for cytotoxicity against African green monkey Vero 76 cells infected with Measles virus CC by visual analysis to EC50 for antiviral activity against Measles virus CC infected in African green monkey Vero 76 cells by visual analysis; type: toxicity, cell-based; details: read-out: Ratio CC50/EC50
# [25] = system: Measles morbillivirus; experiment: Antiviral activity against Measles virus CC infected in African green monkey Vero 76 cells by neutral red dye based analysis; type: functional, organism-based
# [26] = Cytotoxicity against African green monkey Vero 76 cells infected with Measles virus CC by neutral red dye based analysis; type: toxicity, cell-based; details: chlorocebus sabaeus
# [27] = Selectivity index, ratio of CC50 for cytotoxicity against African green monkey Vero 76 cells by neutral red dye based analysis to EC50 for antiviral activity against Measles virus CC infected in African green monkey Vero 76 cells by neutral red dye based analysis; type: toxicity, cell-based; details: read-out: Ratio CC50/EC50
# [28] = system: Norovirus; experiment: Antiviral activity against Norovirus Genogroup 1 infected in human HG23 cells; type: functional, organism-based; details: Genogroup 1, HG23
# [29] = Cytotoxicity against human HG23 cells infected with Norovirus Genogroup 1; type: toxicity, cell-based
# [30] = Selectivity index, ratio of CC50 for cytotoxicity against human HG23 cells infected with Norovirus Genogroup 1 to EC50 for antiviral activity against Norovirus Genogroup 1 infected in human HG23 cells; type: toxicity, cell-based; details: read-out: Ratio CC50/EC50
# [31] = system: Human betaherpesvirus 5; experiment: Antiviral activity against Human betaherpesvirus 5; type: functional, organism-based
# [32] = system: Yellow fever virus; experiment: Antiviral activity against Yellow fever virus; type: functional, organism-based
# [33] = system: Hepatitis B virus; experiment: Antiviral activity against HBV; type: functional, organism-based
# [34] = system: Measles morbillivirus; experiment: Antiviral activity against Measles virus; type: functional, organism-based
# [35] = system: Zaire ebolavirus; experiment: Antiviral activity against Zaire ebolavirus infected in African green monkey Vero cells; type: functional, organism-based
# [36] = Cytotoxicity against African green monkey Vero cells infected with Zaire ebolavirus; type: toxicity, cell-based; details: chlorocebus sabaeus
# [37] = Selectivity index, ratio of CC50 for cytotoxicity against African green monkey Vero cells infected with Zaire ebolavirus to EC50 for antiviral activity against Zaire ebolavirus infected in African green monkey Vero cells; type: toxicity, cell-based; details: read-out: Ratio CC50/EC50
# [38] = system: Marburgvirus; experiment: Antiviral activity against Marburgvirus Angola infected in African green monkey Vero cells; type: functional, organism-based; details: Orthomarburgvirus
# [39] = Cytotoxicity against African green monkey Vero cells infected with Marburgvirus Angola; type: toxicity, cell-based; details: chlorocebus sabaeus
# [40] = Selectivity index, ratio of CC50 for cytotoxicity against African green monkey Vero cells infected with Marburgvirus Angola to EC50 for antiviral activity against Marburgvirus Angola infected in African green monkey Vero cells; type: toxicity, cell-based; details: read-out: Ratio CC50/EC50
smiles,measurement,setting,value
NC(=O)c1ncn([C@@H]2O[C@H](CO)[C@@H](O)[C@H]2O)n1 [RIBAVIRIN],EC50,[1],49 µM
same,CC50,[2],> 4090 µM
same,selectivity ratio,[3],> 83
same,EC50,[4],53 µM
same,CC50,[5],> 4090 µM
same,selectivity ratio,[6],> 77
same,EC50,[7],27.8 µM
same,CC50,[8],> 4090 µM
same,selectivity ratio,[9],> 150
same,EC50,[10],31.1 µM
same,CC50,[11],3930 µM
same,selectivity ratio,[12],130
same,EC50,[13],45 µM
same,CC50,[14],> 4090 µM
same,selectivity ratio,[15],> 91
same,EC50,[16],36.4 µM
same,CC50,[17],> 3560 µM
same,selectivity ratio,[18],> 98
same,EC50,[19],21.9 µM
same,CC50,[20],> 4100 µM
same,selectivity ratio,[21],> 670
Nc1ccn([C@@H]2O[C@H](CO)[C@@H](O)[C@H]2F)c(=O)n1,EC50,[22],2.28 µM
same,CC50,[23],277 µM
same,selectivity ratio,[24],121
same,EC50,[25],3.59 µM
same,CC50,[26],249 µM
same,selectivity ratio,[27],69
C[C@@]1(O)[C@H](O)[C@@H](CO)O[C@H]1n1ccc(N)nc1=O,EC50,[28],1.23 µM
same,CC50,[29],> 25 µM
same,selectivity ratio,[30],> 22
Nc1ncc(F)c2c1ncn2[C@@H]1C=C(CO)[C@@H](O)[C@H]1O,Activity,[31],Active
same,Activity,[32],Active
same,Activity,[33],Active
same,Activity,[34],Active
NC(=O)c1nc(F)cnc1O [FAVIPIRAVIR],EC50,[35],24 µM
same,CC50,[36],> 1000 µM
same,selectivity ratio,[37],> 43
same,EC50,[38],167 µM
same,CC50,[39],> 1000 µM
same,selectivity ratio,[40],> 6
